# Test results: patent US20100286069A1, “CATIONIC PEPTIDE FOR DELIVERING AN AGENT INTO A CELL” (priority 2007, published 2010)
# Where no end group is shown, it is not given here.
# Experiments:
# [1] = tested on: HEK293, HepG2 and 4T1 cells; assay: In vitro luciferase expression, all three cell lines (Example 1); assay type: cell-based, human, mouse; conditions: all cell lines tested
# Protocol: (§1) In vitro luciferase and GFP expression: HEK 293 and HepG2 cells were maintained in Dulbecco's modified Eagle's medium (DMEM) and 4T1 cells were cultured in RPMI 1640 growth medium at 37° C. with 5% CO2. All growth media used were completed with 10% fetal bovine serum, 100 μg/mL of streptomycin and 100 U/ml of penicillin.
# (§2) One day before transfection, cells were seeded at a density that depended on the cell line and type of experiments. For the luciferase transfection assay, 0.5 mL of medium containing 5-8×10^4 cells were seeded into each well of a 24-well plate, while 1.0 mL of medium containing 1.8-2.0×10^5 cells were pipetted into each well of a 12-well plate for GFP expression. Peptide/DNA complexes were formed at various N/P ratios in 10 mM PBS (pH 7.0) by dripping equivolume solutions of peptide into DNA. The mixture was then vortexed for ˜10 seconds and left to stand for at least 30 minutes before usage. Meanwhile, all media were replaced with fresh ones. […]
# (§3) Analysis for luciferase expression was carried out after 3 days. […] The relative light unit (RLU) was measured with a luminometer (Lumat LB 9507, EG&G Berthold) and normalized against the protein concentration as measured with a bicinchoninic acid protein assay kit (Pierce). Luciferase activity was finally expressed as RLU/mg protein ±standard deviation of at least 4 samples. […]
# plasmid DNA = assay: Agarose gel electrophoresis DNA binding assay (Example 1); conditions: 10 mM PBS pH 7.0; for N/P ratio at which bulk electrophoretic migration of DNA is retarded: N/P = arginine residues to DNA phosphorus
# Protocol: DNA binding and protection assays: Agarose gel electrophoresis was conducted to study the DNA binding ability of the peptides. The peptide/DNA complexes containing 2.5 μg of DNA per 50 μL of solution were formed at various N/P ratios. The complex solution (10 μL), together with 2 μL of loading dye (Promega), were then loaded into the wells of a 1.0 wt % agarose gel preloaded with 2 μL of ethidium bromide (per 50 mL of gel solution), and electrophoresed at 80 V for 50 minutes prior to imaging (ChemiGenius Q, Syngene).
# To evaluate the ability of the peptides to fully condense DNA so as to prevent its premature degradation en route to the nuclei of cells, plasmid DNA encoding the 6.4 kb firefly luciferase (pCMV-luciferase VR1255_C) driven by the cytomegalovirus (CMV) promoter (Carl Wheeler, Vical, U.S.A.) was bound to each peptide in 10 mM phosphate-buffered saline (PBS, pH 7.0) at various N/P ratios (defined here as the molar ratio of arginine residues in the peptide to the phosphorus content in DNA). Gel electrophoresis assays were then performed.
# [2] = Zeta potential of pure peptide; assay type: physicochemical
# HEK293 cells [3] = assay: In vitro luciferase expression in HEK293 (Example 1); assay type: cell-based, human
# Protocol: as §1, §2, §3
# HepG2 cells = assay: In vitro luciferase expression in HepG2 (Example 1); assay type: cell-based, human
# Protocol: as §1, §2, §3
# HEK293 cells [4] = assay: GFP transfection assay in HEK293; assay type: cell-based, human
# Protocol: as §1, §2
# For the GFP transfection assay, cells were harvested after 2 days. […] The percentage of cells expressing GFP was then determined using a flow cytometer (FACSCalibur, Becton Dickinson) from 10,000 events and reported as a mean±standard deviation of at least 4 samples. […]
# DNA = assay: Kinetics of DNA capture (PicoGreen); assay type: binding
# Protocol: Upon condensation of the DNA, however, PicoGreen becomes excluded resulting in a drop in florescent intensity. Making use of this behavior, the kinetics of the DNA capturing process was traced and quantified. At time=0, the peptide solution was dripped into the DNA solution and vortexed for ˜10 seconds. At appropriate time intervals, 10 μL of the complex solution was taken out and mixed with 990 μL of PicoGreen working solution (diluted 400 times from its stock solution with TE buffer, pH 7.3). The fluorescence emission spectrum was then recorded with a Fluorolog LFI 3751 fluorescence spectrometer (Jobin Yvon Horiba). The excitation wavelength used was 480 nm and the silts were set to 4 nm. The fluorescence area intensity at any time point expressed as a percentage of the fluorescence intensity obtained with the initial concentration of DNA (before mixing with peptide) was used to reflect the concentration of uncaptured/loosely captured DNA. A profile was plotted to trace the temporal evolution of the DNA capturing process. Blanks and background were corrected for in all calculations.
# To further understand the efficiency and kinetics of DNA capture by the peptides, PicoGreen was used as a sensitive fluorescence probe. […] This behavior can be employed to trace the temporal evolution of free/loosely bound DNA in solution.
# 4T1 cells = assay: In vitro luciferase expression in 4T1 (Example 1); assay type: cell-based, mouse
# Protocol: as §1, §2, §3
# [5] = tested on: subcutaneous 4T1 breast tumors; assay: In vivo luciferase expression in 4T1 tumor-bearing mice
# Protocol: In vivo luciferase expression: Female Balb/c mice (Centre for Animals Resources, National University of Singapore) weighing 18-20 g were subcutaneously injected with 0.1 mL of serum-free RPMI 1640 containing 4×10^5 4T1 cells. A tumor was then allowed to develop in each mouse for 10-12 days. PEI and different formulations of I/DNA complexes were prepared as above, and 30 μl of sample containing 4 μg of DNA was injected directly into each tumor. The tumor tissues were harvested two days later. To analyse for luciferase activity, each tumor was first thoroughly homogenised in lysis buffer, followed by two further freeze-thaw cycles. The mixture was then centrifuged and assayed for its luciferase activity as described above. Expression level was given as RLU/mg protein ±standard deviation of at least 4 mice.
# Finally, the in vivo gene transfection capacity of the peptides was evaluated by performing luciferase expression experiments with peptide I on mice bearing subcutaneous 4T1 breast tumors. […] This may be because the amount of DNA being delivered by the supernatant and sediment formulations was smaller. The large DNA complexes might also not be uniformly distributed in the tumor, limiting the cellular uptake of the large complexes. […]
# [6] = MTT cytotoxicity assay in 4T1 (Example 1); assay type: cell-based; conditions: mouse, 4T1 cells; read-out: cells viable at peak luciferase expression
# Protocol: Cytotoxicity assay: Cells were seeded onto 96-well plates at a density of 6-10×10^3 cells/well. After 24 hours, all media were replaced with fresh ones and 10 μL of sample was introduced into each well. The sample consisted of either pure peptide or […] dissolved in the medium at the desired concentration. After 4 hours, all media were aspirated and replaced with fresh ones. Cytotoxicity analysis was carried out 3 days later by first replacing all wells with fresh media and adding 20 μL of MTT (5 mg/mL in PBS). After incubating for another 3 hours, all wells were carefully aspirated and replaced with 0.15 mL of DMSO to dissolve the internalized purple formazan crystals. The solution was homogenised and the relative colour intensity was measured with a microplate reader (PowerWave X, Bio-Tek Inc.). A test wavelength of 550 nm and a reference wavelength of 690 nm were used. Cell viability was represented by the average of (absorbance550 nm−absorbance690 nm) of the sample expressed as a percentage of the intensity of the controls ±standard deviation. Each data point was repeated at least 8 times.
# For complexes of F, I and W, a peptide concentration of 0.02 and 0.10 mg/mL will approximately correspond to N/P ratio 5 and 25, respectively. For H, a peptide concentration of 0.03 and 0.09 mg/mL will approximately correspond to N/P ratio 10 and 30. […]
substance,measurement,setting,value
NH2—W5H4R8—CONH2 (H-WWWWWHHHHRRRRRRRR-NH2),gene expression level compared among the peptides,[1],lowest gene expression level
NH2—H4R8—CONH2,N/P ratio at which bulk electrophoretic migration of DNA is retarded,plasmid DNA,5
same,zeta potential of pure peptide,[2],8.0±0.2 mV
"FFFFFHHHHRRRRRRRR-NH2 [F, NH2—F5H4R8—CONH2]",luciferase expression level compared among the peptides,HEK293 cells [3],highest luciferase expression level
same,"luciferase expression level, times that of PEI",HEK293 cells [3],0.8 times
same,luciferase expression level compared among the peptides,HepG2 cells,highest luciferase expression level
same,"luciferase expression level, times that of PEI",HepG2 cells,0.2 times
same,"proportion of cells transfected with the GFP gene, comparison",HEK293 cells [4],transfected more HEK293 cells with the GFP gene than H
"IIIIIHHHHRRRRRRRR-NH2 [I, NH2—I5H4R8—CONH2]",quenching of PicoGreen fluorescence compared with H,DNA,to a greater extent
same,luciferase expression level compared among the peptides,4T1 cells; 4T1,optimal
same,"peak luciferase expression level, times higher than PEI","4T1 cells; 4T1 cells, PEI branched Mw 25,000",6.4 times
same,N/P ratio from which ethidium bromide is completely excluded from the condensed DNA,plasmid DNA,≥ 5
same,N/P ratio at which bulk electrophoretic migration of DNA is retarded,plasmid DNA,2
same,gene expression in mouse breast cancer model compared with PEI,[5],much more efficiently than PEI
same,viability at 4 h,[6],~90%
same,zeta potential of pure peptide,[2],15.8±0.2 mV
